Experimental data taken from the supplement of paper PMC11451515.

Tested on: P12-Ichikawa
Assay: cell viability relative to DMSO control; higher = less cytotoxic
Settings: 48 h
Procedure, shortened: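 Before seeding, each leukemia line was adapted for at least four passages in each medium. NOMO1 or SEM cells (500 cells/well) and P12-Ichikawa cells (1000 cells/well) went into 1536-well plates at 5 μl, then received library compounds in DMSO by pin dosing across 11 threefold concentrations, 47 μM to 0.79 nM. Readout was CellTiter-Glo One luminescence after 48 h at 37°C, and viability is given as a per-plate percentage of DMSO wells, with cell-free wells as background.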

[1] = HPLM + 10% dialyzed FBS, 0.000781 µM
[2] = HPLM + 10% dialyzed FBS, 0.00234 µM
[3] = HPLM + 10% dialyzed FBS, 0.00702 µM
[4] = HPLM + 10% dialyzed FBS, 0.0211 µM
[5] = HPLM + 10% dialyzed FBS, 0.0632 µM
[6] = HPLM + 10% dialyzed FBS, 0.19 µM
[7] = HPLM + 10% dialyzed FBS, 0.569 µM
[8] = HPLM + 10% dialyzed FBS, 1.71 µM
[9] = HPLM + 10% dialyzed FBS, 5.12 µM
[10] = HPLM + 10% dialyzed FBS, 15.4 µM
[11] = HPLM + 10% dialyzed FBS, 46.1 µM
[12] = RPMI 5 mM glucose + 10% FBS, 0.000781 µM
[13] = RPMI 5 mM glucose + 10% FBS, 0.00234 µM
[14] = RPMI 5 mM glucose + 10% FBS, 0.00702 µM
[15] = RPMI 5 mM glucose + 10% FBS, 0.0211 µM
[16] = RPMI 5 mM glucose + 10% FBS, 0.0632 µM
[17] = RPMI 5 mM glucose + 10% FBS, 0.19 µM
[18] = RPMI 5 mM glucose + 10% FBS, 0.569 µM
[19] = RPMI 5 mM glucose + 10% FBS, 1.71 µM
[20] = RPMI 5 mM glucose + 10% FBS, 5.12 µM
[21] = RPMI 5 mM glucose + 10% FBS, 15.4 µM
[22] = RPMI 5 mM glucose + 10% FBS, 46.1 µM
[23] = RPMI 5 mM glucose + 10% dialyzed FBS, 0.000781 µM
[24] = RPMI 5 mM glucose + 10% dialyzed FBS, 0.00234 µM
[25] = RPMI 5 mM glucose + 10% dialyzed FBS, 0.00702 µM
[26] = RPMI 5 mM glucose + 10% dialyzed FBS, 0.0211 µM
[27] = RPMI 5 mM glucose + 10% dialyzed FBS, 0.0632 µM
[28] = RPMI 5 mM glucose + 10% dialyzed FBS, 0.19 µM
[29] = RPMI 5 mM glucose + 10% dialyzed FBS, 0.569 µM
[30] = RPMI 5 mM glucose + 10% dialyzed FBS, 1.71 µM
[31] = RPMI 5 mM glucose + 10% dialyzed FBS, 5.12 µM
[32] = RPMI 5 mM glucose + 10% dialyzed FBS, 15.4 µM
[33] = RPMI 5 mM glucose + 10% dialyzed FBS, 46.1 µM

SMILES	cell viability [1]	cell viability [2]	cell viability [3]	cell viability [4]	cell viability [5]	cell viability [6]	cell viability [7]	cell viability [8]	cell viability [9]	cell viability [10]	cell viability [11]	cell viability [12]	cell viability [13]	cell viability [14]	cell viability [15]	cell viability [16]	cell viability [17]	cell viability [18]	cell viability [19]	cell viability [20]	cell viability [21]	cell viability [22]	cell viability [23]	cell viability [24]	cell viability [25]	cell viability [26]	cell viability [27]	cell viability [28]	cell viability [29]	cell viability [30]	cell viability [31]	cell viability [32]	cell viability [33]
COc1ccc(/C=C\c2cc(OC)c(OC)c(OC)c2)cc1O	21%	15%	12.9%	11.3%	11.9%	9.68%	9.98%	8.29%	5.6%	4.13%	3.74%	27.5%	22%	13.8%	14.2%	11.2%	11.2%	10.4%	10.6%	7.66%	3.98%	2.78%	33.5%	26.7%	20.4%	14.9%	15.3%	14.3%	13.1%	11%	9.65%	7.03%	3.92%
CCCCCCCCCCCC(CC1OC(=O)C1CCCCCC)OC(=O)C(CC(C)C)NC=O (configuration not stated)	98.6%	110%	110%	105%	111%	107%	119%	107%	105%	84.2%	3.42%	105%	117%	114%	120%	118%	114%	114%	114%	103%	85.8%	10.6%	101%	107%	103%	108%	117%	112%	116%	112%	99.3%	87.2%	7.97%
O=C(O)c1ccc2cc(-c3ccc(O)c(C45CC6CC(CC(C6)C4)C5)c3)ccc2c1	124%	119%	124%	121%	121%	107%	66.5%	19.2%	10.4%	9.2%	7.25%	116%	123%	134%	122%	117%	96.9%	57.1%	16%	8.71%	8.22%	5.78%											
COc1cc2c(Nc3ccc(NC(=O)c4ccccc4)cc3)ncnc2cc1OCCCN1CCOCC1	116%	123%	122%	125%	131%	133%	135%	125%	45%	15%	15.6%																						
CCCCN(CCCC)CCC(O)c1cc2c(Cl)cc(Cl)cc2c2cc(C(F)(F)F)ccc12 (configuration not stated)	120%	122%	118%	120%	130%	131%	130%	131%	131%	124%	121%	115%	126%	119%	118%	135%	147%	141%	150%	132%	105%	88.3%	108%	110%	114%	117%	120%	125%	130%	138%	131%	141%	105%
COc1nc(-c2ccc3c(c2)OCO3)n(-c2ccc(NC(=O)CSc3ccccc3)cc2)n1	109%	108%	111%	107%	108%	110%	112%	104%	104%	103%	108%	107%	116%	113%	118%	118%	113%	113%	103%	102%	97.2%	92.5%	130%	107%	119%	107%	116%	104%	120%	108%	95.9%	108%	85.6%
C[C@]\1(CCS\C(=N1)N)C2=CC(=C(F)C=C2F)C3=CN=CN=C3	98.2%	101%	112%	103%	110%	115%	115%	122%	106%	15.2%	2.53%	99.3%	103%	119%	117%	113%	114%	121%	113%	117%	30.2%	8.85%	92.1%	109%	104%	109%	110%	108%	101%	98.6%	99.8%	62%	13.4%
C[C@H]([C@H](O)CCC(C)(C)O)[C@H]1CC[C@@]2(O)C/3=C/C(=O)[C@@H]4C[C@@H](O)[C@@H](O)C[C@]4(C)[C@H]3CC[C@]12C																							109%	125%	121%	124%	131%	122%	119%	121%	120%	107%	113%
C#CCN(C)[C@H](C)Cc1ccccc1	92.5%	93.5%	93.7%	89.8%	106%	93%	73.2%	89.5%	92.7%	80.1%	88.3%	82.9%	82.3%	88.9%	83.7%	92.2%	92.7%	89.3%	82.8%	81.5%	87.9%	89%	79.3%	88.6%	83.1%	86.5%	83.8%	88.3%	93.5%	82%	80.9%	80.2%	79.5%
COC[C@H](NC(=O)c1cnc(C)s1)C(=O)N[C@@H](COC)C(=O)N[C@@H](Cc1ccccc1)C(=O)[C@@]1(C)CO1	96.6%	99.8%	98.3%	95%	105%	69.8%	4.41%	3.23%	1.91%	1.12%	2.28%	89%	98.2%	99.8%	96.3%	89.8%	78.5%	3.57%	2.76%	1.79%	1.04%	1.83%	90.8%	93.5%	94.3%	95.7%	87.4%	58.1%	3.41%	2.83%	1.67%	0.842%	1.82%
CC1SC/2=C(C(O)=O)/C(=O)C3=CC(=C(C=C3N12)N4CCN(CC4)C\C5=C(C)\OC(=O)O5)F (configuration not stated)	134%	122%	121%	124%	125%	123%	119%	117%	113%	112%	102%																						
CC(C)(C)OC(=O)CN(Cc1ccc(Cl)cc1)Cc1ccc([N+](=O)[O-])s1	99.7%	107%	107%	101%	99%	98.3%	96.2%	96.5%	91.6%	93%	73.6%	92.8%	99.2%	89%	97.1%	88.2%	99.2%	93.3%	99.9%	92.8%	88.9%	69.3%	99%	90.7%	95.9%	92%	94.9%	92%	87.9%	86.6%	82.4%	91.2%	62.6%
CSC1=CC(=CC=C1)NC2=NC3=C(C=N2)/C=C(C(=O)N3C)/C4=C(Cl)C=CC=C4Cl	102%	95%	101%	98.3%	106%	110%	99.2%	105%	97.4%	95.1%	103%	99.6%	111%	115%	109%	115%	106%	112%	112%	109%	95.5%	102%	110%	109%	110%	90.8%	110%	120%	112%	112%	109%	97.5%	97.7%
CC1(C)[C@@H](O[C@H]2O[C@H](C(=O)O)[C@@H](O)[C@H](O)[C@H]2O[C@@H]2O[C@H](C(=O)O)[C@@H](O)[C@H](O)[C@H]2O)CC[C@]2(C)[C@H]3C(=O)C=C4[C@@H]5C[C@@](C)(C(=O)O)CC[C@]5(C)CC[C@@]4(C)[C@]3(C)CC[C@@H]12	112%	130%	118%	132%	128%	131%	136%	128%	123%	128%	135%																						
C[C@H](NC(=O)C(=O)Nc1ccccc1C(C)(C)C)C(=O)N[C@@H](CC(=O)O)C(=O)COc1c(F)c(F)cc(F)c1F	107%	120%	122%	130%	125%	124%	130%	129%	120%	88.7%	4.89%	101%	131%	124%	120%	133%	128%	126%	122%	121%	56.4%	4.69%	102%	111%	112%	127%	124%	130%	128%	126%	107%	58.9%	4.53%
COCCOC(=O)C/1=C(C)/NC/2=C(C1C3=CC=CC(=C3)O)/C(=O)CC(C2)C4=C(OC)C=CC=C4 (configuration not stated)	94.3%	97.9%	102%	105%	110%	100%	106%	105%	91.5%	86.7%	26.8%	103%	102%	104%	112%	118%	110%	113%	101%	96.3%	89.5%	54.1%	94.8%	97.9%	91.7%	104%	101%	104%	101%	94.7%	87.6%	88.1%	46.8%
Cc1ccc(NC(=O)C2(c3ccc4c(c3)OC(F)(F)O4)CC2)nc1-c1cccc(C(=O)O)c1	101%	111%	101%	108%	93.4%	58.4%	29.4%	19.5%	17.2%	10.9%	6.66%	106%	98.6%	95.5%	101%	85.3%	42.2%	18.7%	16.1%	11.1%	9.88%	6.85%	102%	103%	97%	96.1%	95.4%	44.5%	30.4%	20.8%	9.02%	8.13%	6.13%
